Measured values as given in the NIST ThermoML archive (doi:10.1016/j.jct.2007.11.001).

Assay: molar heat capacity at constant pressure
Conditions: 101.33 kPa, Small (less than 1 g) adiabatic calorimetry

O=P([O-])([O-])[O-].[Cs+].[Mg+2] [caesium-magnesium monophosphate]
molar heat capacity at constant pressure [J/K/mol]
Conditions | Crystal 1 | Crystal 2
7.22 K | – | 0.956
7.3 K | – | 0.981
7.96 K | – | 1.22
8 K | – | 1.24
8.7 K | – | 1.59
9.4 K | – | 1.98
10.09 K | – | 2.4
10.42 K | – | 2.67
11.01 K | – | 3.12
11.69 K | – | 3.64
12.4 K | – | 4.2
13.07 K | – | 4.7
13.9 K | – | 5.392
14.63 K | – | 6.03
15.35 K | – | 6.706
16.06 K | – | 7.41
16.84 K | – | 8.22
17.45 K | – | 8.872
18.81 K | – | 10.39
19.49 K | – | 11.15
20.16 K | – | 11.94
21.16 K | – | 13.14
22.91 K | – | 15.3
25.31 K | – | 18.18
27.75 K | – | 20.87
30.21 K | – | 23.48
32.69 K | – | 25.92
35.16 K | – | 28.27
37.64 K | – | 30.51
40.12 K | – | 32.64
42.6 K | – | 34.69
45.08 K | – | 36.64
47.57 K | – | 38.55
52.52 K | – | 41.99
54.99 K | – | 43.63
57.47 K | – | 45.23
59.95 K | – | 46.77
61.64 K | – | 47.78
63.99 K | – | 49.13
67.48 K | – | 51.06
71.15 K | – | 53
74.82 K | – | 54.85
78.48 K | – | 56.63
82.15 K | – | 58.35
82.7 K | – | 58.61
85.82 K | – | 60.04
85.9 K | – | 60.06
88.99 K | – | 61.45
89.49 K | – | 61.67
91.95 K | – | 62.76
94.91 K | – | 64.05
97.87 K | – | 65.34
100.82 K | – | 66.59
103.77 K | – | 67.82
106.72 K | – | 69.04
109.68 K | – | 70.27
112.63 K | – | 71.51
115.8 K | – | 72.79
118.91 K | – | 74.06
121.88 K | – | 75.27
124.84 K | – | 76.48
127.8 K | – | 77.7
130.76 K | – | 78.9
133.72 K | – | 80.09
136.69 K | – | 81.3
139.65 K | – | 82.5
142.62 K | – | 83.64
145.59 K | – | 84.81
148.56 K | – | 85.97
151.53 K | – | 87.14
154.5 K | – | 88.22
157.6 K | – | 89.38
160.43 K | – | 90.46
163.6 K | – | 91.63
166.37 K | – | 92.62
169.34 K | – | 93.7
172.31 K | – | 94.79
175.74 K | – | 96.03
178.73 K | – | 97.11
182.05 K | – | 98.28
185.19 K | – | 99.36
188.17 K | – | 100.4
191.4 K | – | 101.5
194.3 K | – | 102.6
197.16 K | – | 103.5
199.5 K | – | 104.3
200.16 K | – | 104.6
202.4 K | – | 105.3
202.86 K | – | 105.5
205.51 K | – | 106.3
205.98 K | – | 106.6
208.48 K | – | 107.5
208.94 K | – | 107.8
211.44 K | – | 108.6
211.9 K | – | 108.9
214.13 K | – | 109.6
214.59 K | – | 109.9
217.18 K | – | 110.9
217.64 K | – | 111.2
220.64 K | – | 112.7
221.1 K | – | 113
223.65 K | – | 114.4
224.11 K | – | 114.9
226.53 K | – | 116.3
226.99 K | – | 116.9
232.4 K | – | 122.6
232.75 K | – | 123.1
235.69 K | 133.5 | 129.2
235.7 K | 129.1 | –
237.89 K | 126.1 | –
238.55 K | 124.9 | –
240.77 K | 121.7 | –
241.43 K | 120.9 | –
243.77 K | 118.8 | –
244.43 K | 118.3 | –
246.72 K | 116.9 | –
247.38 K | 116.7 | –
249.24 K | 115.8 | –
249.9 K | 115.7 | –
250 K | 112.2 | –
252.35 K | 115.1 | –
253.01 K | 114.9 | –
255.27 K | 114.7 | –
255.8 K | 114.7 | –
257.91 K | 114.8 | –
258.57 K | 114.8 | –
260 K | 114.2 | –
260.67 K | 115 | –
261.33 K | 115.1 | –
263.41 K | 115.3 | –
264.07 K | 115.4 | –
266.23 K | 115.7 | –
266.89 K | 115.8 | –
268.97 K | 116.1 | –
269.63 K | 116.2 | –
270 K | 116.3 | –
271.52 K | 116.5 | –
272.18 K | 116.7 | –
274.19 K | 117.1 | –
274.85 K | 117.2 | –
276.83 K | 117.7 | –
277.49 K | 117.8 | –
280 K | 118.3 | –
280.12 K | 118.3 | –
282.5 K | 118.8 | –
285.44 K | 119.4 | –
287.8 K | 119.8 | –
289.7 K | 120.3 | –
290 K | 120.3 | –
